Measurements as given in US9155724B2, “Combination methods for treatment of disease” (Whitehead Institute for Biomedical Research, priority 2010, dated 2015).
pIC50: −log10 of the molar value. Where a name gives a salt, the structure may show the parent alone. Each block holds one molecule with its values, some of them ahead of it.

Columns and labels:
[1] = cited from earlier work
P-TEFb [2] = molecular target: T1, P-TEFb (Mus musculus, UniProt Q99J95); test: Pol II ChIP-seq / traveling ratio in flavopiridol-treated mES cells; format: cell-based, murine
T1 construct: endogenous in cells; host or cells: V6.5 (C57BL/6-129) murine ES cells
T1 sequence (Q99J95 whole entry): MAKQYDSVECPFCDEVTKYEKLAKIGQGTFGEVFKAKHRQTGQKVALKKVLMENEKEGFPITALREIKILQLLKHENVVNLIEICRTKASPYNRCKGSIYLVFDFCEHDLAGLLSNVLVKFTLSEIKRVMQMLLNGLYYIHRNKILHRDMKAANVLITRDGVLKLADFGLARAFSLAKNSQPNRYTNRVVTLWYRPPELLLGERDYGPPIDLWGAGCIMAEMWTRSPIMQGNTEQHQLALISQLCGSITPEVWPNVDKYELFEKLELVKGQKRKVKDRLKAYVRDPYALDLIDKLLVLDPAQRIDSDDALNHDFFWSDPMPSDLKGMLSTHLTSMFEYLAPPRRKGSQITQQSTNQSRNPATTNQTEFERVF
T1 sequence (Q9QWV9 whole entry partner): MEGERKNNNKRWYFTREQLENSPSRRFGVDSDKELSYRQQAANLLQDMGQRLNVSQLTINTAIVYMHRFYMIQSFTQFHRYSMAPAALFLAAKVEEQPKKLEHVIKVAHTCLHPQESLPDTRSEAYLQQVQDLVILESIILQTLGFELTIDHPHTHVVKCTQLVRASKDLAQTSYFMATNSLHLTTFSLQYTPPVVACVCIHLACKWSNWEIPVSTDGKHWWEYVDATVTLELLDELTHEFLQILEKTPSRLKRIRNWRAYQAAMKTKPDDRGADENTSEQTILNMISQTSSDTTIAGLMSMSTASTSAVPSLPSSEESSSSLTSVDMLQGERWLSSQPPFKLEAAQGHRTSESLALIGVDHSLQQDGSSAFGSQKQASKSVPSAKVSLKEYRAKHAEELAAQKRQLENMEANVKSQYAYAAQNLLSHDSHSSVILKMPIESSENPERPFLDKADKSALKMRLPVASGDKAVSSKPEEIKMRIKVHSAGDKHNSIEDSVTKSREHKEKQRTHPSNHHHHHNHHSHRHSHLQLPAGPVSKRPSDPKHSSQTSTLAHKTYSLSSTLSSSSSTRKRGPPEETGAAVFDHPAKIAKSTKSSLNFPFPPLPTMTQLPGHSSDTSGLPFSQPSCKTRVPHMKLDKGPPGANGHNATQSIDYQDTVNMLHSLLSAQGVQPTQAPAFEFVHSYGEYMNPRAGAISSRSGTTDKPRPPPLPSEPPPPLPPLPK
Method: (A) mES cells were treated with 1 μM flavopiridol for the indicated time. […] (B) RNA Pol II (all) ChIP-seq analysis in mES cells treated with control (DMSO for 60 minutes, black) or flavopiridol (1 μM for 60 minutes, red). […] Higher TR values indicate a higher degree of pausing.
To assess the role of P-TEFb-dependent pause release in global transcriptional control, we repeated the ChIP-Seq experiment for total Pol II in mES cells treated with flavopiridol, an inhibitor of Cdk9 kinase activity (Chao et al., 2000; Chao and Price, 2001; Ni et al., 2004). […] If Pol II pause release is required at transcribed genes, we would expect that in the presence of flavopiridol, Pol II molecules would remain associated with promoter proximal pause sites but be depleted from DNA further downstream. […] We analyzed traveling ratios to further evaluate changes in Pol II occupancy genome-wide.
V6.5 (C57BL/6-129) murine ES cells were grown under typical mES conditions on irradiated mouse embryonic fibroblasts (MEFs). For location analysis, cells were grown for two passages off of MEFs, on gelatinized tissue-culture plates. […]
To quantify this effect, we have developed a measure called Traveling Ratio (TR) that compares the ratio between Pol II density in the promoter and in the gene region. […]

P-TEFb [3] = molecular target: T1, P-TEFb; test: Western blot of P-TEFb target phosphorylation in flavopiridol-treated mES cells; format: cell-based, murine; details: 1 μM flavopiridol, within 60 min
Method: (A) mES cells were treated with 1 μM flavopiridol for the indicated time.
(A) mES cells were treated with the indicated flavopiridol concentration or DMSO alone (−), for 60 minutes.
To assess the role of P-TEFb-dependent pause release in global transcriptional control, we repeated the ChIP-Seq experiment for total Pol II in mES cells treated with flavopiridol, an inhibitor of Cdk9 kinase activity (Chao et al., 2000; Chao and Price, 2001; Ni et al., 2004).
V6.5 (C57BL/6-129) murine ES cells were grown under typical mES conditions on irradiated mouse embryonic fibroblasts (MEFs). […] For location analysis on mES cells following treatment with small molecule inhibitors, cells were grown two passages off feeders and prior to formaldehyde crosslinking, the cells were treated by addition of the indicated final concentration of flavopiridol (1 μM for 1 hour for ChIP-chip and ChIP-seq experiments, or the indicated concentration and time for Western blot analysis), or c-Myc/Max inhibitor 10058-F4 (50 μM for 6 hours), both dissolved in DMSO, to the growth medium. As a control, vehicle alone (DMSO) was added to the growth medium at the same final volume as with drug. Small molecule inhibitors used were: Flavopiridol (Sigma cat #F3055), and c-Myc inhibitor 10058-F4 (Sigma cat #F3680).
Western blots were done following standard protocols. Antibodies used for Western blots were as follows: Spt5: gift of Yuki Yamaguchi and Hiroshi Handa (Wada et al., 1998); NelfA: gift of Yuki Yamaguchi and Hiroshi Handa; Cdk9: Santa Cruz sc-484 and sc-8338, Ser2P Pol II: Abcam (H5 clone) ab24758; Ser5P Pol II: Abcam ab5131; Brg1: Santa Cruz sc-10768; Max: Santa Cruz sc-197; c-Myc: Santa Cruz-764; Cyclin T1: gift of David Price; Oct4: Santa Cruz sc-5279; and TBP: Abcam ab818.

P-TEFb [4] = molecular target: T1, P-TEFb; test: Spt5 and NelfA ChIP-chip in flavopiridol-treated mES cells; format: cell-based, murine; details: flavopiridol for 60 minutes
Method: (A) Pairwise correlation analysis of Spt5, NelfA and Pol II (all) ChIP-seq occupancy in mES cells. […] (B) Western blot analysis of mES cells treated with 1 mM flavopiridol or control for 60 minutes prior. […] (C) Average gene binding for NelfA and Spt5 following 1 mM flavopiridol (red) or control (black) for 60 minutes in mES cells. The average ChIP-chip enrichment was determined in each bin (250 bp) in each condition and plotted from −4 kb to +2 kb.
We used ChIP-chip to determine if Spt5 and NelfA co-occupy promoter proximal sites with Pol II when P-TEFb activity is inhibited by flavopiridol.
Purified immunoprecipitated DNA was amplified using two rounds of ligation mediated PCR (LM PCR), as described in (Lee et al., 2006b) and the Agilent Mammalian ChIP-on-chip protocol (version 9.1, November 2006). LM-PCR immunoprecipitated DNA was labeled with Cy5, LM-PCR input DNA was labeled with Cy3 using Invitrogen Bioprime random primer labeling kit. For microarray hybridization, the Agilent Mammalian ChIP-on-chip protocol (version 9.1, November 2006) was followed. In brief, mouse Cotl DNA, Agilent blocking buffer (1× final conc.), Agilent hybridization buffer (1× final conc.), was added to Cy5- and Cy3-labeled DNA. The mixture was incubated at 95° C. for 3 minutes, followed by 37° C. for 30 minutes. Sample was centrifuged for 1 min and sample was hybridized to Agilent DNA microarray. […]

HL60 cells = details: read-out: IC50 on HL60 cells (growth inhibition); cited from earlier work
c-Myc = c-Myc (Homo sapiens, UniProt P01106); details: relative to parent compound 10058-F4; cited from earlier work
Chain of c-Myc (P01106 whole entry): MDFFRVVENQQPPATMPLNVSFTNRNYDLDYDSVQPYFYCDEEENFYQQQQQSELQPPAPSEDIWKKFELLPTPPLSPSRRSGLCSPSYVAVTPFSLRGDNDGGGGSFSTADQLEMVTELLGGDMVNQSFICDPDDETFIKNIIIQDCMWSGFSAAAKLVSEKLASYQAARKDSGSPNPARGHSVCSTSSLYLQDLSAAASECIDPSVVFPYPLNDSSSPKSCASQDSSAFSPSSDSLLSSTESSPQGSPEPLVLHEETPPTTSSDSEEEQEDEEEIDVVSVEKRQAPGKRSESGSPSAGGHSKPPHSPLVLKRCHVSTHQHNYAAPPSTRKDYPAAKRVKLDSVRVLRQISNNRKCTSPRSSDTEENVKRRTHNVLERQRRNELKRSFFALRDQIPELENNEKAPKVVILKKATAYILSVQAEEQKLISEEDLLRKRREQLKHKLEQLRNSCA

[5] = system: c-Myc-dependent oncogenic transformation of chicken embryo fibroblasts; details: at 20 μM; cited from earlier work
[6] = cited from earlier work; remark: listed apart in the source
c-Myc/Max [7] = molecular target: T2, c-Myc/Max (Mus musculus, UniProt P01108); test: Western blot of 10058-F4-treated mES cells; format: cell-based, murine
T2 construct: endogenous in cells; host or cells: V6.5 (C57BL/6-129) murine ES cells
T2 sequence (P01108 whole entry): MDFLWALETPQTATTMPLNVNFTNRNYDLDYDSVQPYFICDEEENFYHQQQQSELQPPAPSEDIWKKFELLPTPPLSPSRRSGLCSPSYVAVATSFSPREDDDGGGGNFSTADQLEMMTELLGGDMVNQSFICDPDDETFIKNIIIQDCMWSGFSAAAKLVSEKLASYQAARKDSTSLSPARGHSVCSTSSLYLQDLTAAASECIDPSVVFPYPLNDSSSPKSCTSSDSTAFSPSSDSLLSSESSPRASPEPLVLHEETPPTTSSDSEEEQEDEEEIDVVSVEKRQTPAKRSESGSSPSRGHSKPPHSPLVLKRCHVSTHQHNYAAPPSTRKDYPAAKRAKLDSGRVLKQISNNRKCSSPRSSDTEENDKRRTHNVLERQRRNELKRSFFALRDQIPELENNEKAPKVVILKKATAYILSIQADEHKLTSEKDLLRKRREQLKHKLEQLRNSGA
Method: FIGS. 6A to 6E. c-Myc inhibition effects transcription at the pause release step. (A) RNA was extracted from mES cells treated with 10058-F4 or vehicle alone (DMSO) for 6 hours and used to generate cDNA using reverse transcription. Expression change was calculated for 10058-F4 treated cells compared vehicle alone control for two non-c-Myc target genes (Brg1, Rnf2-green) and five c-Myc target genes (Bax, Nol5, Zfp451, Brca2 and Atic—blue) from two independent experiments. Error bars represent s.d. from triplicate qPCR reactions. (B) mES cells were treated with 10058-F4 for either 1.5, 6 or 12 hours. Extracts were analyzed using Western blot using antibodies against Pol II Ser2P CTD, Pol II Ser5P CTD and Cdk9 to determine the levels of the modified forms of Pol II. TBP was used as a loading control. (C) Pol II ChIP-seq binding profiles in mES cells treated with 10058-F4 (c-Myc/Max inhibitor; blue), vehicle alone (black), or flavopiridol (P-TEFb inhibitor; red). Pol II occupancy is shown for three c-Myc target genes (Ncl, Npm1 and Nol5) and two non-cMyc target gene (Txnip and Chpf2). Cells were treated with 10058-F4 or DMSO for 6 hours. See also FIG. 14. (D) Average Pol II binding plots for the high confidence cMyc targets and non-c-Myc target genes in no drug (black), and 10058-F4 treatment (blue). […] The right panel is a close up of the transcribed region to show the difference in amounts of elongating Pol II density under the different conditions. […]
FIGS. 14A to 14F. […] Max ChIP DNA was analyzed using qPCR at the selected binding sites and enrichment was calculated for replicate PCR reactions over input DNA at each region. […] Protein extracts were analyzed using Western blots and probed with antibodies against CycT1 and Cdk9. […] ES cells were infected for 24 hours, then selected for 72 hours prior to harvesting. c-Myc levels were determined using RT-PCR analysis and normalized against a Gapdh control. […] ES cells were infected for 24 hours, then selected for 72 hours prior to harvesting. c-Myc levels were determined using Western blot analysis using an antibody against c-Myc. […]

c-Myc/Max [8] = molecular target: T2, c-Myc/Max; test: Pol II ChIP-seq / traveling ratio in 10058-F4-treated mES cells; format: cell-based, murine; details: 50 μM for 6 hours
Method: FIGS. 6A to 6E. c-Myc inhibition effects transcription at the pause release step. (A) RNA was extracted from mES cells treated with 10058-F4 or vehicle alone (DMSO) for 6 hours and used to generate cDNA using reverse transcription. Expression change was calculated for 10058-F4 treated cells compared vehicle alone control for two non-c-Myc target genes (Brg1, Rnf2-green) and five c-Myc target genes (Bax, Nol5, Zfp451, Brca2 and Atic—blue) from two independent experiments. Error bars represent s.d. from triplicate qPCR reactions. (B) mES cells were treated with 10058-F4 for either 1.5, 6 or 12 hours. Extracts were analyzed using Western blot using antibodies against Pol II Ser2P CTD, Pol II Ser5P CTD and Cdk9 to determine the levels of the modified forms of Pol II. TBP was used as a loading control. (C) Pol II ChIP-seq binding profiles in mES cells treated with 10058-F4 (c-Myc/Max inhibitor; blue), vehicle alone (black), or flavopiridol (P-TEFb inhibitor; red). Pol II occupancy is shown for three c-Myc target genes (Ncl, Npm1 and Nol5) and two non-cMyc target gene (Txnip and Chpf2). Cells were treated with 10058-F4 or DMSO for 6 hours. See also FIG. 14. (D) Average Pol II binding plots for the high confidence cMyc targets and non-c-Myc target genes in no drug (black), and 10058-F4 treatment (blue). […] The right panel is a close up of the transcribed region to show the difference in amounts of elongating Pol II density under the different conditions. Also included in the right panel for comparison is elongating Pol II density following flavopiridol treatment (red). (E) Pol II traveling ratio (TR) as described in FIG. 1C for the high confidence c-Myc target genes and non-c-Myc target genes following 10058-F4 treatment (blue) or no drug (black). The left panel is the TR for the c-Myc targets and right panel is the TR for non-c-Myc targets. Higher TR values indicate a higher degree of pausing in this gene set.
If c-Myc regulates pause release, then inhibition by 10058-F4 should have an effect on Pol II levels in promoter and gene bodies similar to that of flavopiridol, but only at c-Myc occupied genes. […]
We carried out a more global analysis of the effect of 10058-F4 on Pol II occupancy of genes bound by c-Myc and compared these patterns to genes that are not bound by this factor but show evidence of elongation (FIG. 6D). […] A similar shift in TR at the c-Myc target genes was also detected following c-Myc shRNA knockdown, indicating genes become more paused (FIG. 14F). […]
RNAPolII—10058F4Treated_Tracks.WIG.gz—contains two ChIP-seq datasets mapped to mouse genome mm8 using a +200 bp extension model that can be uploaded to the UCSC genome browser to view binding events. The ChIP experiments were done using the N20 Pol II antibody (sc-899) to determined total Pol II occupancy. […]

c-Myc/Max [9] = molecular target: T2, c-Myc/Max; test: expression analysis (quantitative PCR) in 10058-F4-treated mES cells; format: cell-based, murine; details: 50 μM for 6 hours
Method: FIGS. 6A to 6E. c-Myc inhibition effects transcription at the pause release step. (A) RNA was extracted from mES cells treated with 10058-F4 or vehicle alone (DMSO) for 6 hours and used to generate cDNA using reverse transcription. Expression change was calculated for 10058-F4 treated cells compared vehicle alone control for two non-c-Myc target genes (Brg1, Rnf2-green) and five c-Myc target genes (Bax, Nol5, Zfp451, Brca2 and Atic—blue) from two independent experiments. Error bars represent s.d. from triplicate qPCR reactions. (B) mES cells were treated with 10058-F4 for either 1.5, 6 or 12 hours. Extracts were analyzed using Western blot using antibodies against Pol II Ser2P CTD, Pol II Ser5P CTD and Cdk9 to determine the levels of the modified forms of Pol II. TBP was used as a loading control. […]
To more directly test whether c-Myc regulates pause release and the associated Pol II CTD phosphorylation at Ser2, we used a low molecular weight inhibitor of c-Myc/Max, 10058-F4, which inhibits c-Myc/Max heterodimerization both in vitro and in vivo (Hammoudeh et al., 2009; Wang et al., 2007; Yin et al., 2003). Max co-occupies c-Myc binding sites as determined by ChIP, confirming that c-Myc and Max function together at target genes in ES cells (FIG. 14A). […]

[10] = ES cells treated with 10058-F4 for 1.5, 6 or 12 hours

genes with a change in Pol II TR of at least 1.5 upon drug treatment (P-TEFb [2]; 1 μM for 60 minutes): 75% | pause release at genes that are not targets of c-Myc (P-TEFb [2]; flavopiridol treatment, Pol II ChIP-seq): block in pause release | Ser5 phosphorylation of Pol II (P-TEFb [3]): remained unaffected | phosphorylation of Pol II Ser2 (P-TEFb [3]): reduced phosphorylation | phosphorylation of Spt5 (P-TEFb [3]): reduced phosphorylation | Spt5 occupancy downstream of promoter proximal sites (P-TEFb [4]): depleted
SMILES: CN1CC[C@H](c2c(O)cc(O)c3c(=O)cc(-c4ccccc4Cl)oc23)[C@H](O)C1 [flavopiridol, (−)-2-(2-Chlorophenyl)-5,7-dihydroxy-8-[(3S,4R)-3-hydroxy-1-methyl-4-piperidinyl]-4H-1-benzopyran-4-one hydrochloride]
main side effects ([1]; doses achieving plasma levels of approximately 400 nM, 72 hour treatment): fatigue, venous thromboses, and diarrhea | plasma flavopiridol levels ([1]; during a 72 hour treatment period): approximately 400 nM

SMILES: CC(C)c1ccc(/C=C2\SC(=S)N(CN3CCCCC3)C2=O)cc1 [28RH-NCN-1]
pIC50 (HL60 cells): 4.54 | inhibition of DNA binding of c-Myc (c-Myc): comparable to that of the parent compound

SMILES: COc1ccc(CN(C(=O)c2ccccn2)C(C(=O)NC2CCCCC2)c2ccc3cc(OCC(=O)OC(C)(C)C)ccc3c2)cc1 (centres unmarked) [NY2267]
inhibition of c-Myc-dependent oncogenic transformation [5]: strongly inhibited

SMILES: CC[C@H](CO)Nc1nc(NCc2ccccc2)c2ncn(C(C)C)c2n1 [roscovitine, 2-(R)-(1-Ethyl-2-hydroxyethylamino)-6-benzylamino-9-isopropyl purine]
dose-limiting toxicities ([6]; at 800 mg b.i.d.): grade 3 fatigue, grade 3 skin rash, grade 3 hyponatraemia and grade 4 hypokalaemia | dose at which dose-limiting toxicities were seen ([6]; patients with solid tumors, 7-day b.i.d. p.o. schedule): 800 mg b.i.d.

levels of Pol II Ser2P (c-Myc/Max [7]; [10]): significant reduction | levels of Pol II Ser5P (c-Myc/Max [7]; [10]): remained unaffected | protein levels of P-TEFb components Cdk9 or CycT1 (c-Myc/Max [7]; mES cells, 10058-F4 for 6 hours): did not alter | TR at c-Myc target genes (c-Myc/Max [8]): substantial increase | TR at non-c-Myc targets (c-Myc/Max [8]): no such shift | Pol II density in transcribed regions (c-Myc/Max [8]; c-Myc targets, gene body p=7.341e-06): clear reduction | Pol II density at promoters (c-Myc/Max [8]; c-Myc targets, p=0.4536): little effect | decrease in the expression of c-Myc target genes (c-Myc/Max [9]): 20-40% | expression of two non-c-Myc target genes (c-Myc/Max [9]): did not affect
SMILES: CCc1ccc(/C=C2\SC(=S)NC2=O)cc1 [10058-F4]
pIC50 (HL60 cells): 4.31
